From ChEMBL document CHEMBL4765466, “Recent Advances in the Development of PD-L1 Modulators: Degraders, Downregulators, and Covalent Inhibitors” (J Med Chem, 2020)

Experiment: Lipophilicity, log P of the compound
Format: physicochemical
Conditions: octanol/water

Q: With `COc1nc(OCc2cccc(-c3ccccc3)c2C)ccc1CNCCNC(C)=O` as the molecule, how does the logP read?
A: 4.4
